Assay results from patent publication US12673918B2, “Small molecule RPN13 inhibitors with antitumor properties” (The Johns Hopkins University, priority 2019, dated 2026).
Where two headings read alike, the source gives them in different places.

Assays:
HeLa [1] = assay: MTT cytotoxicity assay, HeLa; details: read-out: cytotoxicity IC50 HeLa, Tables 3A/4B/4C
SKOV3 = assay: MTT cytotoxicity assay, SKOV3
Protocol: Cell lines and cytotoxicity assays: All cell lines were obtained from the American Type Culture Collection (ATCC) and cultured in the specified medium supplemented with 10% fetal bovine serum, 100 IU/mL penicillin, and 100 μg/mL streptomycin at 37° C. in a humidified 5% CO2/95% air incubator. […] To assess drug cytotoxicity, cells were seeded at 2,500 cells/well (10,000 cells/well for MM lines) in 100 μL medium in 96-well plate and after 24 treated with compounds for 72 h, incubated according to the manufacturer's protocol with the Thiazolyl Blue Tetrazolium Bromide (Sigma, M2128) and A570 measured using a Benchmark Plus microplate spectrophotometer (BIO-RAD). IC50 data was analyzed by Graphpad Prism software.

HeLa [2] = details: human
SSC90 = details: human
VU93 [3] = tested on: VU93
FaDu = assay: cells; details: Homo sapiens, read-out: cytotoxicity IC50 FaDu
TOV21G = assay: MTT cytotoxicity assay, TOV21G; details: read-out: cytotoxicity IC50 TOV21G; Tables 3A/4B/4C; MTT assay
OV2008 = assay: MTT cytotoxicity assay, OV2008; details: read-out: cytotoxicity IC50 OV2008
Protocol: (§3) Cell lines and cytotoxicity assays: All cell lines were obtained from the American Type Culture Collection (ATCC) and cultured in the specified medium supplemented with 10% fetal bovine serum, 100 IU/mL penicillin, and 100 μg/mL streptomycin at 37° C. in a humidified 5% CO2/95% air incubator. […] To assess drug cytotoxicity, cells were seeded at 2,500 cells/well (10,000 cells/well for MM lines) in 100 μL medium in 96-well plate and after 24 treated with compounds for 72 h, incubated according to the manufacturer's protocol with the Thiazolyl Blue Tetrazolium Bromide (Sigma, M2128) and A570 measured using a Benchmark Plus microplate spectrophotometer (BIO-RAD). IC50 data was analyzed by Graphpad Prism software. In the chirality studies the cells were treated with compounds for 48 h, and the cells were incubated and measured via the preceeding protocols.

ID8-vegf = assay: MTT cytotoxicity assay, ID8-vegf; details: read-out: cytotoxicity IC50 ID8-vegf, Tables 3A/4B/4C
ES2 = assay: MTT cytotoxicity assay, ES2; details: read-out: cytotoxicity IC50 ES2; Tables 3A/4B/4C; MTT assay
MCF7 = assay: MTT cytotoxicity assay, MCF7; details: read-out: cytotoxicity IC50 MCF7, Tables 3A/4B/4C
OVCAR3 = assay: MTT cytotoxicity assay, OVCAR3; details: read-out: cytotoxicity IC50 OVCAR3; Tables 3A/4B/4C; MTT assay
HCC1395 = assay: MTT cytotoxicity assay, HCC1395; details: Homo sapiens, HCC1395, read-out: cytotoxicity IC50 HCC1395
DLD1 = assay: MTT cytotoxicity assay, DLD1; details: Homo sapiens, DLD-1, read-out: cytotoxicity IC50 DLD1
Protocol: as §3

DLD-BRCA2-Ve = assay: MTT cytotoxicity assay, DLD-BRCA2-Ve; details: read-out: cytotoxicity IC50 DLD-BRCA2-Ve
Protocol: as §3

BR5-Luc = assay: MTT cytotoxicity assay, BR5-Luc; details: read-out: cytotoxicity IC50 BR5-Luc, Tables 3A/4B/4C, BRCA2 − VE
BR5-FvB1 = assay: MTT cytotoxicity assay, BR5-FvB1; details: Mus musculus, read-out: cytotoxicity IC50 BR5-FvB1
Protocol: as §3

[4] = MTT cytotoxicity assay, RPE1; details: human, RPE1 cells
Protocol: as §3

VU93 [5] = assay: MTT cytotoxicity assay, VU93; details: read-out: cytotoxicity IC50 VU93, Tables 3A/4B/4C
C2KmFvB1 = assay: MTT cytotoxicity assay, C2KmFvB1; details: read-out: cytotoxicity IC50 C2KmFvB1, Tables 3A/4B/4C, BRCA2 + Ve
DLD-Seckle = assay: MTT cytotoxicity assay, DLD-Seckle; details: read-out: cytotoxicity IC50 DLD-Seckle
Protocol: as §3

RPE1-ATMKO = assay: MTT cytotoxicity assay, RPE1-ATMKO; details: read-out: cytotoxicity IC50 RPE1-ATMKO
Protocol: as §3

HeLa cells = assay: XTT cytotoxicity assay, HeLa; assay type: cell-based, human
From the text: (§1) The impact of substituents of the aromatic ring on the potency of molecules was also examined. The presence of either an electron withdrawing group (EWG) or an electron donating group (EDG) influences the reactivity of a Michael acceptor towards the target protein but can also impact specificity/selectivity.

SKOV3 cells = assay: XTT cytotoxicity assay, SKOV3; assay type: cell-based, human
From the text: as §1

[6] = tested on: high molecular weight polyubiquitinated proteins; assay: Western blot of polyubiquitinated proteins, ES2 cells; assay type: cell-based, human; details: 1 μM, 4 hr
Protocol: FIG. 1C illustrates ES2 cells treated with compounds (1 μM, 4 hr), lysed and the samples probed with ubiquitin or actin-specific antibody by Western blot analysis.
Antibodies, reagents, and Western Blot Analyses: Cell lysate (10-20 μg total protein) prepared in MPER (Pierce) from each sample was subjected to SDS-PAGE, transferred to PVDF membranes and analyzed by Western blot using antibodies specific Bax (#2772, Cell Signaling), ubiquitin (P4D1, sc-8017, Santa Cruz), PARP (#9542, BD Pharmingen), actin (#66009, Protein Tech Group), Tubulin(#66031, Protein Tech Group), ADRM1/Rpn13 (D9Z1U, #12019, Cell Signaling), Lys48-linkled ubiquitin (Apu 2, 05-1307, (Millipore), Annexin V (#559763, BD pharmingen), caspase-3 (51-68655X, BD Pharmingen) at the dilutions recommended by the manufacturers, and for secondary antibodies either peroxidase-linked anti-mouse IgG or anti-rabbit IgG (GE Healthcare UK Ltd) were utilized, HRP conjugated streptavidin (N100, Thermo Fisher) at the recommended dilution (1:5000). MitoTracker Red CMXRos reagent was purchased from ThermoFisher #M7512. The blots were developed using HyGLO chemiluminescent detection reagent (Denville).

RPN13 = RPN13 (Homo sapiens, UniProt Q16186); assay: Competition with RA190B labeling of 42 kDa cellular target in cell lysate; assay type: binding; set-up: endogenous in cells; running text says HeLa) and OV2008 cell lysates; details: cell lysate pre-incubated with compounds (20 μM), then RA190B; HRP-streptavidin blot
RPN13, sequence (Q16186 whole entry): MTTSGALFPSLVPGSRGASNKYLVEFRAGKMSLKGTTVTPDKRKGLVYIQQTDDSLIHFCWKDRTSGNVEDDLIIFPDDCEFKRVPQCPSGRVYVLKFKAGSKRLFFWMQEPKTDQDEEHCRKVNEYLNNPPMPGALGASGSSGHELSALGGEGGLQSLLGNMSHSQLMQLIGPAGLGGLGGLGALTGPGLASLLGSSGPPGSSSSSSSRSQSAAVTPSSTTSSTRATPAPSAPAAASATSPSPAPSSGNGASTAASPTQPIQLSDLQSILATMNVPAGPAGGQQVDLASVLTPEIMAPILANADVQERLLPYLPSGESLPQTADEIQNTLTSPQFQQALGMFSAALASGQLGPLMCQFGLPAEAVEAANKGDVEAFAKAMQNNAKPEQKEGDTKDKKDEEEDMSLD
Protocol: (§2) FIG. 1B illustrates precleared ES2 cell lysate incubated with compounds (20 μM) or vehicle (DMSO, 1:100) for 45 min and then with RA190B (5 μM) for 45 min at 4° C. by Western blot analysis. Samples were subjected to SDS-PAGE, transfer to PVDF membrane, and after probing with HRP-streptavidin, binding was detected using chemiluminescence.
as §2, with “2B” for “1B”, “OV2008” for “ES2”, “(10” for “(5”, “binding of” for “after probing with”, “HRP-streptavidin,” for “HRP-streptavidin, binding was”
Biotinylated RA190 (RA190B, FIG. 1A) is utilized as a probe to detect covalent binding to its cellular target(s) in detergent lysates of cancer cell lines (10). […] Here, the ability of compounds (FIG. 1A) to compete with RA190B binding to its 42 kDa cellular target (FIG. 1B) were examined. Compounds, including bortezomib as a negative control, were incubated with HeLa cell lysate and then RA190B added.
Biotin labeling Assay: Clarified cell lysate in MPER buffer was pretreated with streptavidin magna beads for 45 min at 4° C. to deplete non-specific biotinylated proteins in the cell lysate. The beads were separated and 40 μL of the pre-cleared cell lysate was incubated with compounds (20 μM) for 45 min at 4° C., and then treated with RA183B, RA190B, or RA413SB (10 μM) for 45 min at 4° C. Next, the samples were mixed with Laemmli sample buffer (BioRad) and boiled for 5 min. […] (24 V). The membrane was blocked with 5% BSA in PBST for 1 hr at RT and washed for 20 minutes (3× with PBST). Then the membrane was probed with HRP-streptavidin (1:10,000 in PBST) for 1 hr at RT, washed for 30 min (3× with PBST), and developed using HyGLO chemiluminescent detection reagent (Denville) for biotin detection.

[7] = Homo sapiens, SK-OV-3, read-out: cytotoxicity IC50 SKOV3
[8] = Table 1, XTT assay, read-out: IC50 HeLa
[9] = Table 1, XTT assay, read-out: IC50 SKOV3

CC1NCC(=Cc2ccc([N+](=O)[O-])cc2)C(=O)C1=Cc1ccc([N+](=O)[O-])cc1 (racemic) [RA411]
IC50 (HeLa [1]): 16 nM
IC50 (SKOV3; read-out: cytotoxicity IC50 SKOV3, Tables 3A/4B/4C, MTT assay): 257 nM

CC1/C(=C\c2ccc([N+](=O)[O-])cc2)C(=O)/C(=C/c2ccc([N+](=O)[O-])cc2)CN1C(=O)[C@@H](N)Cc1ccccc1 (mixture of isomers) [RA413]
IC50 (HeLa [2]): 96 nM
IC50 (SSC90): 312 nM
IC50 (VU93 [3]): 625 nM
IC50 (FaDu): 300 nM
IC50 (SKOV3; [7]): 86 nM
IC50 (TOV21G): 42 nM
IC50 (OV2008): 150 nM
IC50 (ID8-vegf): 192 nM

CC1/C(=C\c2ccc(F)cc2)C(=O)/C(=C/c2ccc(F)cc2)CN1C(=O)[C@@H](N)Cc1ccccc1 (mixture of isomers) [RA462]
IC50 (ES2): 96 nM
IC50 (MCF7): 750 nM
IC50 (SKOV3; [7]): 112 nM
IC50 (OVCAR3): 105 nM
IC50 (HCC1395): 250 nM
IC50 (ID8-vegf): 123 nM

CC1/C(=C\c2ccccc2F)C(=O)/C(=C/c2ccccc2F)CN1C(=O)[C@@H](N)Cc1ccccc1 (mixture of isomers) [RA467]
IC50 (ES2): 112 nM
IC50 (DLD1): 474 nM
IC50 (MCF7): 750 nM
IC50 (SKOV3; [7]): 126 nM
IC50 (OVCAR3): 120 nM
IC50 (HCC1395): 250 nM
IC50 (ID8-vegf): 167 nM
IC50 (DLD-BRCA2-Ve): 502 nM

COc1cccc2c1C(=O)c1c(O)c3c(c(O)c1C2=O)C[C@@](O)(C(=O)CO)C[C@@H]3O[C@H]1C[C@H](N)[C@H](O)[C@H](C)O1 [DOX, Doxorubicin]
IC50 (BR5-Luc): 237 nM
IC50 (BR5-FvB1): < 20 nM

O=C(c1cc(Cc2n[nH]c(=O)c3ccccc23)ccc1F)N1CCN(C(=O)C2CC2)CC1 [OLA, olaparib, reference compound]
IC50 (DLD1): 23000 nM
IC50 [4]: 23200 nM
IC50 (VU93 [5]): 30 nM
IC50 (BR5-Luc): 500 nM
IC50 (HCC1395): 750 nM
IC50 (BR5-FvB1): 30 nM
IC50 (C2KmFvB1): 7960 nM
IC50 (DLD-Seckle): 1.7 nM
IC50 (RPE1-ATMKO): 2.6 nM
IC50 (DLD-BRCA2-Ve): 2.5 nM

Cl.NC(Cc1ccccc1)C(=O)N1CC(=CC=Cc2ccccc2)C(=O)C(=CC=Cc2ccccc2)C1 (centres unmarked) [RA181C]
IC50 (HeLa cells; [8]): > 2500 nM
IC50 (SKOV3 cells; [9]): > 2500 nM
accumulation of high molecular weight polyubiquitinated proteins [6]: only minimal accumulation of polyubiquitinated proteins
competition with RA190B binding to 42 kDa cellular target (RPN13): failed to compete binding by RA190B

Cl.NC(Cc1ccccc1)C(=O)N1CC(=Cc2ccccc2)C(=O)C(=Cc2ccccc2)C1 (centres unmarked) [RA181]
IC50 (HeLa cells; [8]): 63 nM
IC50 (SKOV3 cells; [9]): 89 nM
accumulation of high molecular weight polyubiquitinated proteins [6]: rapid accumulation of high molecular weight polyubiquitinated proteins
competition with RA190B binding to 42 kDa cellular target (RPN13): competed labeling by RA190B to a greater extent

CC1(C)CN(C(=O)[C@@H](N)Cc2ccccc2)C/C(=C\c2ccc(Cl)c(Cl)c2)C1=O [RA190H]
IC50 (HeLa cells; Homo sapiens, HeLa, Table 1, XTT assay, read-out: IC50 HeLa): 562 nM
fold decreased potency compared to RA190 (HeLa cells; cytotoxicity, Table 1 cell lines (HeLa, SKOV3)): 6 fold
accumulation of high molecular weight polyubiquitinated proteins [6]: only weakly caused an accumulation of high molecular weight polyubiquitinated proteins
competition with RA190B binding to 42 kDa cellular target (RPN13): competed labeling by RA190B to a greater extent

Cl.NC(Cc1ccccc1)C(=O)N1C2CCC1C(=Cc1ccc(Cl)c(Cl)c1)C(=O)C2=Cc1ccc(Cl)c(Cl)c1 (centres unmarked) [RA338]
IC50 (HeLa cells; Table 2, read-out: IC50 HeLa (bridge compounds)): 66 nM
IC50 (SKOV3 cells; Table 2, read-out: IC50 SKOV3 (bridge compounds)): 81 nM
accumulation of high molecular weight polyubiquitinated proteins [6]: rapid accumulation of high molecular weight polyubiquitinated proteins
competition with RA190B binding to 42 kDa cellular target (RPN13): competed labeling by RA190B to a greater extent

CC[C@]1(O)C[C@H]2CN(CCc3c([nH]c4ccccc34)[C@@](C(=O)OC)(c3cc4c(cc3OC)N(C=O)[C@H]3[C@@](O)(C(=O)OC)[C@H](OC(C)=O)[C@]5(CC)C=CCN6CC[C@]43[C@@H]65)C2)C1 [Vin, Vincristine]
IC50 (C2KmFvB1): 13.4 nM
